# Experimental data taken from publication PMC8001250 (Biomolecules, 2021).
# “Also recorded” adds a separate entry of the source. Like-named read-outs stand apart in the source and are kept apart here. Non-standard residues stand in square brackets, D forms with d. Residues, ends and D or L forms follow the SMILES beside them. Ala(azulen-1-yl) = N[C@@H](Cc1ccc2cccccc1-2)C(=O)O
# Columns and labels:
# S. aureus ATCC 35556 [1] = assay type: cell-based; details: ATCC 35556, 18 h
# Experimental: (§1) Bacteria were streaked from frozen glycerol stocks onto LB agar plates (E. coli D31, S. aureus ATCC 35556, P. aeruginosa PA-01, A. baumannii ATCC 19609). The plates were incubated at 37 °C for ~18 h to allow growth. An individual colony from each plate was transferred into individual sterile tubes containing 3 mL of Muller Hinton (MH) broth and subsequently incubated for 18 h with shaking (225 rpm) at 37 °C. An aliquot of this culture was then diluted with fresh MH broth (1:250) and further incubated with shaking (225 rpm) at 37 °C until an OD600 of 0.2–0.4 was reached. This mid-log culture was then diluted to 5 × 10^5 CFU/mL in fresh MH broth. Serially diluted peptides were dispensed in a 96-well plate such that the final concentration in each well would be in the range of 15 µM to 0.234 µM. Then, 90 µL of the freshly diluted culture was transferred to the 96-well plate, yielding a final volume of 100 µL. The 96-well plate was covered and transferred to a humidified incubator at 37 °C for 18 h. The growth and inhibition of bacterial growth were determined by measuring OD600 directly in the plate and comparing to an untreated control. The Minimum Bactericidal Concentration (MBC) was determined by transferring 1 µL of culture from each well of the MIC plate onto fresh LB agar plates and allowed to incubate overnight at 37 °C.
# P. aeruginosa PA-01 [2] = assay type: cell-based; details: PA-01, 18 h
# Experimental: as §1
# A. baumannii ATCC 19609 [3] = assay type: cell-based; details: ATCC 19609, 18 h
# Experimental: as §1
# trypsin = trypsin (50 µL of 0.001 mg/mL solution) in buffer (50 mM sodium phosphate, 100 mM NaCl, pH 7.0); details: room temperature, up to 4 hours
# P. aeruginosa PA-01 [4] = details: previously reported activity of the parent peptide; ref [30]; cited from earlier work
# Source text: Table 2 Bacterial growth inhibition/killing concentration (µM). | column: P. aeruginosa
# S. aureus ATCC 35556 [5] = details: previously reported activity of the parent peptide; ref [30]; cited from earlier work
# Source text: Table 2 Bacterial growth inhibition/killing concentration (µM). | column: S. aureus
# E. coli D31 = details: previously reported activity of the parent peptide; ref [30]; cited from earlier work
# Source text: Table 2 Bacterial growth inhibition/killing concentration (µM). | column: E. coli
# A. baumannii ATCC 19609 [6] = details: previously reported activity of the parent peptide; ref [30]; cited from earlier work
# Source text: Table 2 Bacterial growth inhibition/killing concentration (µM). | column: A. baumannii
Compound,"MBC, S. aureus (S. aureus ATCC 35556 [1]) [µM]","MIC, S. aureus (S. aureus ATCC 35556 [1]) [µM]","MBC, P. aeruginosa (P. aeruginosa PA-01 [2]) [µM]","MIC, P. aeruginosa (P. aeruginosa PA-01 [2]) [µM]","MBC, A. baumannii (A. baumannii ATCC 19609 [3]) [µM]","MIC, A. baumannii (A. baumannii ATCC 19609 [3]) [µM]",fragment found (trypsin),"MBC, P. aeruginosa (P. aeruginosa PA-01 [4]) [µM]","MIC, P. aeruginosa (P. aeruginosa PA-01 [4]) [µM]","MBC, S. aureus (S. aureus ATCC 35556 [5]) [µM]","MIC, S. aureus (S. aureus ATCC 35556 [5]) [µM]","MBC, E. coli (E. coli D31) [µM]","MIC, E. coli (E. coli D31) [µM]","MBC, A. baumannii (A. baumannii ATCC 19609 [6]) [µM]","MIC, A. baumannii (A. baumannii ATCC 19609 [6]) [µM]"
CC[C@H](C)[C@H](NC(=O)[C@H](Cc1c[nH]c2ccccc12)NC(=O)[C@@H](NC(=O)[C@H](Cc1ccc2cccccc1-2)NC(=O)[C@@H]1CCCN1C(=O)[C@@H](NC(=O)[C@H](C)N)[C@@H](C)CC)[C@@H](C)CC)C(=O)N[C@@H](Cc1c[nH]c2ccccc12)C(=O)N[C@@H](CCCNC(=N)N)C(=O)N[C@@H](CC(C)C)C(=O)N[C@@H](CC(C)C)C(=O)N[C@@H](CCCNC(=N)N)C(=O)N[C@@H](CCCCN)C(=O)NCC(N)=O [Peptide Z4] (H-AIP[Ala(azulen-1-yl)]IWIWRLLRKG-NH2),7.50,7.50,>15,>15,7.50,7.50,–,–,–,–,–,–,–,–,–
CC[C@H](C)[C@H](NC(=O)[C@H](Cc1ccc2cccccc1-2)NC(=O)[C@@H](NC(=O)[C@H](Cc1c[nH]c2ccccc12)NC(=O)[C@@H]1CCCN1C(=O)[C@@H](NC(=O)[C@H](C)N)[C@@H](C)CC)[C@@H](C)CC)C(=O)N[C@@H](Cc1c[nH]c2ccccc12)C(=O)N[C@@H](CCCNC(=N)N)C(=O)N[C@@H](CC(C)C)C(=O)N[C@@H](CC(C)C)C(=O)N[C@@H](CCCNC(=N)N)C(=O)N[C@@H](CCCCN)C(=O)NCC(N)=O [Peptide Z6] (H-AIPWI[Ala(azulen-1-yl)]IWRLLRKG-NH2),1.88,1.88,>15,>15,7.50,3.75,–,–,–,–,–,–,–,–,–
CC[C@H](C)[C@H](NC(=O)[C@H](Cc1c[nH]c2ccccc12)NC(=O)[C@@H](NC(=O)[C@H](Cc1c[nH]c2ccccc12)NC(=O)[C@@H]1CCCN1C(=O)[C@@H](NC(=O)[C@H](C)N)[C@@H](C)CC)[C@@H](C)CC)C(=O)N[C@@H](Cc1ccc2cccccc1-2)C(=O)N[C@@H](CCCNC(=N)N)C(=O)N[C@@H](CC(C)C)C(=O)N[C@@H](CC(C)C)C(=O)N[C@@H](CCCNC(=N)N)C(=O)N[C@@H](CCCCN)C(=O)NCC(N)=O [Peptide Z8] (H-AIPWIWI[Ala(azulen-1-yl)]RLLRKG-NH2),15.00,7.50,>15,>15,7.50,7.50,–,–,–,–,–,–,–,–,–
AIPWIWIWRLLRKG,–,–,–,–,–,–,AIPWIWIWR; also recorded: AIPWIWIWRLLR,–,–,–,–,–,–,–,–
H-AIPWIWIWRLLRKG-NH2 [WWW],–,–,–,–,–,–,–,>15,15.00,3.75,3.75,7.50,7.50,3.75,3.75
